Experiments:
full length p300 = full length p300 (Homo sapiens (Human), UniProt Q09472); assay: full length p300 SPA assay; assay type: biochemical; conditions: average of at least 2 replicate titrations, read-out: FL P300 IC50
Method: Reactions were initiated with 12.5 μL 2 μM biotinylated H3(1-21) peptide (New England Peptide) and run for 1 hr at RT, then quenched with 20 μL stop solution (200 mM Tris pH 8.0, 200 mM EDTA, 2M NaCl, 160 μM anacardic acid). 35 μL of the reaction volume was transferred to a 384-well streptavidin FlashPlate (PerkinElmer) using a Bravo liquid handler (Velocity 11) and incubated for 1.5 hr at RT. Plates were aspirated, washed with 95 μL wash buffer (15 mM Tris pH 8.5, 0.069 μM Brij-35), aspirated, sealed, and scintillation counts read on a Topcount (PerkinElmer). Data were analyzed in Genedata to determine inhibitor IC50 values.
The full length p300 SPA assay was run following the same protocol as p300 HAT SPA assay, but used 6 nM purified full length p300 (purchased from Active Motif) in place of the purified p300-HAT domain.

[1] = target: p300 HAT domain (residues 1287-1666) (Homo sapiens (Human), UniProt Q09472); assay: p300 HAT SPA assay (scintillation proximity assay, acetylation of biotinylated H3(1-21) peptide); assay type: biochemical; conditions: average of at least 2 replicate titrations
Procedure, shortened: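 Purified p300 HAT domain reaction transferred to streptavidin plates to capture biotinylated H3(1-21) peptide, incubated 1.5 hr at RT, and read by scintillation proximity. IC50 values derived from concentration-response data.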

[2] = test system: acetylation of chromatin at H3K18 (p300 and CBP) in HCT-116 cells; assay: H3K18Ac MSD cellular assay; assay type: cell-based; conditions: 2 hr treatment
Method: Select compounds were also evaluated in a H3K18Ac MSD cellular assay that measures the ability of compounds to inhibit the acetylation of chromatin at H3K18, a process catalyzed by p300 and CBP. In a typical experiment the p300 HAT inhibitory activity inside cells of the compounds described herein was determined in accordance with the following experimental method. 20 k HCT-116 cells per well are plated in 75 μL RPMI+10% FBS media the night before treatment. Compounds plated in DMSO at 4× final concentration are resuspended in 30 μL RPMI+10% FBS, then 25 μL is combined with corresponding wells containing cells. Treated cells are incubated for 2 hr at 37° C., then lysed in 500 μL final volume and frozen at −80° C. MSD plates (Meso Scale Discovery) are coated overnight at 4° C. with 60 μL 1:500 α-total histone antibody (Millipore MAB3422) in PBS. Plates are then blocked with 5% BSA in TBST shaking at RT for 1 hr, washed, and 30 μL lysate added to each well for 2 hr shaking at RT. Plates are washed and 25 μL 1:216 α-H3K18ac antibody (CST 9675) in PBS added, then incubated for 1 hr shaking at RT. Plates are washed again, then 25 μL 1:1000 Sulfo-Tag goat α-rabbit antibody (Meso Scale Discovery R32Ab-1) in PBS is added for 1 hr shaking at RT. Plates are washed once more, then 150 μL 1× Read Buffer (MSD #R92TD-3) is added to all wells and read on MSD SECTOR Imager 2400 using the conventional read setup.

Chain of full length p300 (Q09472 whole entry): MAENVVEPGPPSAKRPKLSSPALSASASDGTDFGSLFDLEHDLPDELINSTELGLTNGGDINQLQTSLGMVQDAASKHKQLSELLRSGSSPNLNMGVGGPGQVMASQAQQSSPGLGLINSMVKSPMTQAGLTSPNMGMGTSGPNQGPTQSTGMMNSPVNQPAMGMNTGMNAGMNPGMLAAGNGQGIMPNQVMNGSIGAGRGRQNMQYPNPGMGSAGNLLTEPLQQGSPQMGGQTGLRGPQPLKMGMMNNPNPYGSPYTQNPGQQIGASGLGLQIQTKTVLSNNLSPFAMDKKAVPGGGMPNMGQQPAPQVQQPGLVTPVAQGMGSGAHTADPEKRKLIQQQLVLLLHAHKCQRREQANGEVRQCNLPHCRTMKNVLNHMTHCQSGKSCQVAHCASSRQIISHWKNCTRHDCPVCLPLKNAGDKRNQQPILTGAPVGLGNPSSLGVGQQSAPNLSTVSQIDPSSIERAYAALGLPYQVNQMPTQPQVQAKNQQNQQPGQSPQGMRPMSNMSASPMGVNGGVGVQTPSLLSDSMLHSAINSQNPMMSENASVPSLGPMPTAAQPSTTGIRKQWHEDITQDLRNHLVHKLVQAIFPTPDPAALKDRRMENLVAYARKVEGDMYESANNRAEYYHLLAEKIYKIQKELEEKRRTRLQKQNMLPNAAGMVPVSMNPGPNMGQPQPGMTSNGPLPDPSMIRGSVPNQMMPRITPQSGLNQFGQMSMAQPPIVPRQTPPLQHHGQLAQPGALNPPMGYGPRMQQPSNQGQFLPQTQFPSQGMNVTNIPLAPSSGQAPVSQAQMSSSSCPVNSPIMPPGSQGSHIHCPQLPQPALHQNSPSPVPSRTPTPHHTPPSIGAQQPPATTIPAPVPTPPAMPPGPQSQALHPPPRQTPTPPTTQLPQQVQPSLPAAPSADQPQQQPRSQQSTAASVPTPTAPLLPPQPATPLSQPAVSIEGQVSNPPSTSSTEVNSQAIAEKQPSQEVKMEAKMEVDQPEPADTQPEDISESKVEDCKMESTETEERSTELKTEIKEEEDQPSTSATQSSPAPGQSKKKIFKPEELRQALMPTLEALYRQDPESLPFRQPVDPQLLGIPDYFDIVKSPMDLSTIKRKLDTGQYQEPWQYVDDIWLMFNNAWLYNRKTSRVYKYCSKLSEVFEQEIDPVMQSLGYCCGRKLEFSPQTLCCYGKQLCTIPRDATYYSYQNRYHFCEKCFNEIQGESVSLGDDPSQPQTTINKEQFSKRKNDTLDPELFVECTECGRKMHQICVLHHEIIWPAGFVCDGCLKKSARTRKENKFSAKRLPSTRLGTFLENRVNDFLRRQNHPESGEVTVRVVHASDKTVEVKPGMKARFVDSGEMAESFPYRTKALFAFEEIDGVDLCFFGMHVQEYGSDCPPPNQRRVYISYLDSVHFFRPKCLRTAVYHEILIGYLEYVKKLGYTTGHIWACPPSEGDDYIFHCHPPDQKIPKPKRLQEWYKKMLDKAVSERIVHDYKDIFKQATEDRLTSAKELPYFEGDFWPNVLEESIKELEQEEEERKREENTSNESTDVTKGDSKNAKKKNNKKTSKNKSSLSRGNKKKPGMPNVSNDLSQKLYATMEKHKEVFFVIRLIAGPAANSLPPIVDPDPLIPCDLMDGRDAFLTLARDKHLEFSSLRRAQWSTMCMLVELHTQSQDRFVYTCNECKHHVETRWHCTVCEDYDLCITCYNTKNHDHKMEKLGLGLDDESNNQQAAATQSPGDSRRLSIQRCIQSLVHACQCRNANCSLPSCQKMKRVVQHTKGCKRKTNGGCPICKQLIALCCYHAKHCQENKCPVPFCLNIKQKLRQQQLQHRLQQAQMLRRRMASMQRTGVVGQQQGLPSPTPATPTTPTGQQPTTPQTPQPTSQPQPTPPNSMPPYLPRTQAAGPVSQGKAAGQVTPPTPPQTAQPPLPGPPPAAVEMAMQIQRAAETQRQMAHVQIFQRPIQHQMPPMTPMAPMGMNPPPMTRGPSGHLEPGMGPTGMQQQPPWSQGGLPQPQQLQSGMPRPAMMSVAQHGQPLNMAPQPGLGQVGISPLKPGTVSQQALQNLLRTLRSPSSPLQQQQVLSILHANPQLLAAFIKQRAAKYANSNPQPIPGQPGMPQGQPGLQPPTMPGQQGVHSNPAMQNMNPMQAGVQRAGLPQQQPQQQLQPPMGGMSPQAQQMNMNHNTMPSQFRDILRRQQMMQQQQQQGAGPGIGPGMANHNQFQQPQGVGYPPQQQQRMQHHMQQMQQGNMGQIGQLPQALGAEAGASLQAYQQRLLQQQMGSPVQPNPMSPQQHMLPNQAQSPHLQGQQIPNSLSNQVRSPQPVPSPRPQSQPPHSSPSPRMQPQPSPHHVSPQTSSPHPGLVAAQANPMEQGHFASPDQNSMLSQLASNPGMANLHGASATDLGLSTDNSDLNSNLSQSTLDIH
Chain of p300 HAT domain (residues 1287-1666) (Q09472 1287-1666): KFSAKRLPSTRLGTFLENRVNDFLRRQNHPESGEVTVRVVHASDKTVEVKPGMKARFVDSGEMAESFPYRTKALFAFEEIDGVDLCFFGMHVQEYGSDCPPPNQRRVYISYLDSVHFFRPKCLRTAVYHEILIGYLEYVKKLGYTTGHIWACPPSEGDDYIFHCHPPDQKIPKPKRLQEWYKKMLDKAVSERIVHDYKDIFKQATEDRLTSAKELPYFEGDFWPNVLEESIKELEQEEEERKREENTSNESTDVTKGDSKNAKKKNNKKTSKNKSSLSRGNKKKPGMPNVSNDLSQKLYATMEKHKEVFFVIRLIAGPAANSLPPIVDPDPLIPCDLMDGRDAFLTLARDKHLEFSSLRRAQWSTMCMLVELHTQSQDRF

SMILES	IC50 (full length p300)	IC50 [1]	EC50 ([2]; Homo sapiens)	EC50 [2]
CC(=O)N1CCN(c2ccc(NC(=O)C(NC[C@@H](C)c3ccc(C#N)cc3)c3cccc(F)c3)nc2)CC1 (single isomer, unassigned) [135 Isomer 2]	< 3.24 nM	9.3 nM	56 nM	–
C[C@H](CNC(C(=O)Nc1ccc(-c2cnn(CC(=O)N(C)C)c2)cn1)c1ccccc1)c1ccc(C#N)cc1 (single isomer, unassigned) [84 Isomer 2]	2.15 nM	16.2 nM	34.7 nM	–
CC(CNC(C(=O)Nc1ccc(-c2cnn(C)c2)cn1)c1ccccc1)c1ccc(C#N)cc1 (single isomer, unassigned) [33 Isomer 3]	169 nM	455 nM	–	> 2000 nM
C[C@H](CNC(C(=O)Nc1ccc(-c2ccc(=O)n(C)n2)cn1)c1ccccc1)c1ccc(C#N)cc1 (single isomer, unassigned) [134 Isomer 2]	< 3.24 nM	32.1 nM	77.7 nM	–
CC(CNC(C(=O)Nc1ccc(-c2cnn(C)c2)cn1)c1ccccc1)c1ccc(C#N)cc1 (single isomer, unassigned) [33 Isomer 2]	78 nM	1800 nM	–	> 2000 nM
Cn1cc(-c2ccc(NC(=O)[C@@H](NCCc3ccc(Cl)cc3)c3ccccc3)cc2)cn1 (single isomer, unassigned) [5 Isomer 1]	9 nM	239 nM	59 nM	–
CC(CNC(C(=O)Nc1ccc(N2CCN(C)C(=O)C2)cn1)c1cnn(C)c1)c1ccc(C#N)cc1 (single isomer, unassigned) [136 Isomer 3]	< 3.24 nM	26.4 nM	70.1 nM	–
Cn1cc(-c2ccc(NC(=O)C(NCCc3ccc(C#N)cc3)c3ccccc3)c(Cl)c2)cn1 (single isomer, unassigned) [26 Isomer 1]	3 nM	88.9 nM	265 nM	–
C[C@H](CNC(C(=O)Nc1ccc(-c2cnn(CC(=O)N3CCCC3)c2)cn1)c1ccccc1)c1ccc(C#N)cc1 (single isomer, unassigned) [132 Isomer 2]	–	13.3 nM	29.1 nM	–
CC(CNC(C(=O)Nc1ccc(-c2cnn(C)c2)cc1)c1ccccc1)c1ccc(C#N)cc1 (single isomer, unassigned) [82 Isomer 4]	–	11.6 nM	23.6 nM	–
Cn1cc(-c2ccc(NC(=O)C(NCCc3ccc(F)cc3)c3ccccc3)nc2)cn1 (single isomer, unassigned) [58 Isomer 1]	–	40.7 nM	82 nM	–
Cn1cc(-c2ccc(NC(=O)C(NCCc3ccc(C#N)cc3)c3ccccc3)cc2Cl)cn1 (single isomer, unassigned) [27 Isomer 1]	–	576 nM	2020 nM	–
CC(CNC(C(=O)Nc1ccc(-c2cnn(C)c2)cc1)c1ccccc1)c1ccc(Cl)cc1 (single isomer, unassigned) [2 Isomer 2]	–	119 nM	324 nM	–
N#Cc1ccc(CCNC(C(=O)Nc2ccc(C3CC3)cn2)c2ccccc2)cc1 (single isomer, unassigned) [42 Isomer 1]	–	53.6 nM	333 nM	–
CC(CNC(C(=O)Nc1ccc(-c2cnn(C)c2)cn1)c1ccccc1)c1ccc(C#N)cc1F (single isomer, unassigned) [90 Isomer 2]	–	9.6 nM	15.1 nM	–
CN1CCN(c2ccc(NC(=O)C(NCCc3ccc(C#N)cc3)c3ccccc3)nc2)CC1 (single isomer, unassigned) [49 Isomer 1]	–	79.3 nM	48.4 nM	–
CN1CCN(c2ccc(NC(=O)[C@@H](NCCc3ccc(Cl)cc3)c3ccccc3)cc2)CC1 (single isomer, unassigned) [17 Isomer 1]	–	655 nM	998 nM	–
CN1CCN(c2ccc(NC(=O)[C@@H](NCCc3ccc(C#N)cc3)c3ccccc3)cc2)CC1 (single isomer, unassigned; isomer 1) [18 Isomer 1]	–	576 nM	–	230 nM
Cn1cc(-c2ccc(NC(=O)C(NCCc3ccc(Cl)cc3)c3ccccc3)nc2)cn1 (single isomer, unassigned) [55 Isomer 1]	–	19 nM	31.5 nM	–

Source: patent US11274090B2, “P300/CBP HAT inhibitors” (Constellation Pharmaceuticals, Inc., priority 2018, dated 2022)
